Results on 38 compounds are retold here after patent publication US11203591B2, “Substituted 6-azabenzimidazole compounds” (Gilead Sciences, Inc., priority 2018, dated 2021).

pIC50: −log10 of the molar value.

The test deals with human HPK1 (MAP4K1) (Homo sapiens (Human), UniProt Q92918). Description: HPK1 IC50 Assay (TR-FRET peptide phosphorylation). The class given is biochemical. Particulars: recombinant HPK1 kinase domain 0.15 nM, 10 μM ATP, 1 μM STK S1 peptide; geometric mean of multiple experiments. The method, boiled down: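 Readout: TR-FRET (665 nm/620 nm) after EDTA stop, detecting STK S1 peptide (1 μM) phosphorylation by 0.15 nM HPK1 kinase domain, ATP-pre-activated, at 10 μM ATP over 3 h, 25° C, pH 7.0. IC50s from four-parameter variable-slope fits, normalized to staurosporine and DMSO, averaged geometrically.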
Sequence of human HPK1 (MAP4K1) (Q92918 17-274): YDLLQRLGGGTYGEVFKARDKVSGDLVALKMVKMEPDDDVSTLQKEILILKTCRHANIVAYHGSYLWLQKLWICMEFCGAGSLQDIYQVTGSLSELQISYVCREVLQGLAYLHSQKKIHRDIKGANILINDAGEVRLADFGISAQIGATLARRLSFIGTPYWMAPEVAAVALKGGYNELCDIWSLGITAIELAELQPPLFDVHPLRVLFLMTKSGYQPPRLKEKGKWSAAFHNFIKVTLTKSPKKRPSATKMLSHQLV
As for `CNC(=O)c1cc(Nc2nc(-c3ccc4c(c3)N([C@H]3C[C@@H](N5CCCCC5)C3)C(=O)C43CCOCC3)cc3ncn(C(C)C)c23)ccc1C` [Example 123], the pIC50 – broadly, −log10 of the IC50, conventionally taken in molar units – was 10.00. In the case of `Cc1cc(F)c(Nc2nc(-c3ccc4c(c3)N([C@H]3C[C@@H](N5CCCCC5)C3)C(=O)C43CCOCC3)cc3ncn(C(C)C)c23)cc1C(=O)NC(C)C` [Example 125] it was 9.70. `Cc1ccc(Nc2nc(-c3ccc4c(c3)N([C@H]3C[C@@H](N5CCCCC5)C3)C(=O)C43CCOCC3)cc3ncn(C4CC4)c23)cc1C(N)=O` [Example 126]: the pIC50 is 10.15. In the case of `CNC(=O)c1cc(Nc2nc(-c3ccc4c(c3)N([C@H]3C[C@@H](N5CCCCC5)C3)C(=O)C43CCOCC3)cc3ncn(C4CC4)c23)ccc1C` [Example 127] it was 10.00; in that of `CC[C@H](C)n1cnc2cc(-c3ccc4c(c3)N([C@H]3C[C@@H](N5CCCCC5)C3)C(=O)C4(C)C)nc(Nc3ccc(C)c(C(=O)NC)c3)c21` [Example 128], 10.00; in that of `CC(=O)N1CCC2(CC1)C(=O)N([C@H]1C[C@@H](N3CCCCC3)C1)c1cc(-c3cc4ncn(C(C)C)c4c(Nc4cc(C(=O)NC(C)C)c(C)cc4F)n3)ccc12` [Example 129], 9.70.

Regarding `CCNC(=O)c1cc(Nc2nc(-c3ccc4c(c3)N([C@H]3C[C@@H](N5CCCCC5)C3)C(=O)C43CCN(C(C)=O)CC3)cc3ncn(C(C)C)c23)ccc1C` [Example 130], the pIC50 is 10.00. The figure for `COCCNC(=O)c1cc(Nc2nc(-c3ccc4c(c3)N([C@H]3C[C@@H](N5CCCCC5)C3)C(=O)C43CCN(C(C)=O)CC3)cc3ncn(C(C)C)c23)ccc1C` [Example 131] is 9.70; for `CC(=O)N1CCC2(CC1)C(=O)N([C@H]1C[C@@H](N3CCCCC3)C1)c1cc(-c3cc4ncn(C(C)C)c4c(Nc4ccc(C)c(C(=O)NCCO)c4)n3)ccc12` [Example 132] it is 10.00; for `CCn1cnc2cc(-c3ccc4c(c3)N([C@H]3C[C@@H](NC(=O)C(C)(C)C)C3)C(=O)C4(C)C)nc(Nc3ccc(C)c(C(N)=O)c3)c21` [Example 133] it is 9.05. `Cc1cc(F)c(Nc2nc(-c3cnc4c(c3)N([C@H]3C[C@@H](N5CCCCC5)C3)C(=O)C4(C)C)cc3ncn(C(C)C)c23)cc1C(=O)NC1(CF)CC1` [Example 134]: the pIC50 was 9.52. For the compound `Cc1ccc(Nc2nc(-c3ccc4c(c3)N([C@H]3C[C@@H](NC(=O)C(C)(C)C)C3)C(=O)C4(C)C)cc3ncn(C(C)C)c23)cc1C(N)=O` [Example 135, 5-((6-(3,3-dimethyl-2-oxo-1-((1s,3s)-3-pivalamidocyclobutyl)indolin-6-yl)-3-isopropyl-3H-imidazo[4,5-c]pyridin-4-yl)amino)-2-methylbenzamide], the pIC50 is 9.22. The figure for `Cc1ccc(Nc2nc(-c3ccc4c(c3)N([C@H]3C[C@@H](N5CCCCC5)C3)C(=O)C4(C)C)cc3ncn(C(C)C)c23)cc1C(=O)NC(C)C` [Example 136, 5-((6-(3,3-dimethyl-2-oxo-1-((1s,3s)-3-(piperidin-1-yl)cyclobutyl)indolin-6-yl)-3-isopropyl-3H-imidazo[4,5-c]pyridin-4-yl)amino)-N-isopropyl-2-methylbenzamide] is 10.00; for `COCCNC(=O)c1cc(Nc2nc(-c3ccc4c(c3)N([C@H]3C[C@@H](N5CCCCC5)C3)C(=O)C4(C)C)cc3ncn(C(C)C)c23)ccc1C` [Example 137] it is 10.00. Take `CCNC(=O)c1cc(Nc2nc(-c3ccc4c(c3)N([C@H]3C[C@@H](N5CCCCC5)C3)C(=O)C4(C)C)cc3ncn(C(C)C)c23)ccc1C` [Example 138]: the pIC50 is 10.00. Consider `Cc1ccc(Nc2nc(-c3ccc4c(c3)N([C@H]3C[C@@H](N5CCCCC5)C3)C(=O)C4(C)C)cc3ncn(C(C)C)c23)cc1C(=O)NCC(C)C` [Example 139], for which the negative-log IC50 (pIC50) was 10.22. The figure for `CNC(=O)c1cc(Nc2nc(-c3ccc4c(c3)N([C@H]3C[C@@H](N5CCCCC5)C3)C(=O)C4(C)C)cc3ncn(C(C)C)c23)ccc1OC(F)(F)F` [Example 140] is 9.52. As to `CNC(=O)c1cc(Nc2nc(-c3ccc4c(c3)N([C@H]3C[C@@H](N5CCCCC5)C3)C(=O)C4(C)C)cc3ncn(C(C)C)c23)ccc1C(F)(F)F` [Example 141], the pIC50 is 10.15. For the compound `CNC(=O)c1cc(Nc2nc(-c3ccc4c(c3)N([C@H]3C[C@@H](N5CCCCC5)C3)C(=O)C4(C)C)cc3ncn(C(C)C)c23)ccc1C1CC1` [Example 142], the pIC50 was 9.70. On to `CCc1ccc(Nc2nc(-c3ccc4c(c3)N([C@H]3C[C@@H](N5CCCCC5)C3)C(=O)C4(C)C)cc3ncn(C(C)C)c23)cc1C(=O)NC` [Example 143], for which the pIC50 is 10.22. The figure for `Cc1c(C(=O)NC2(C(F)F)CC2)cc(Nc2nc(-c3ccc4c(c3)N([C@H]3C[C@@H](N5CCCCC5)C3)C(=O)C4(C)C)cc3ncn(C(C)C)c23)c(F)c1F` [Example 144] is 10.15; for `Cc1c(C(=O)NC2(C(F)F)CC2)cc(Nc2nc(-c3ccc4c(c3)N([C@H]3C[C@@H](N5C[C@H]6CC[C@@H]5C6)C3)C(=O)C4(C)C)cc3ncn(C(C)C)c23)c(F)c1F` [Example 145, 5-((6-(1-((1S,3s)-3-((1R,4S)-2-azabicyclo[2.2.1]heptan-2-yl)cyclobutyl)-3,3-dimethyl-2-oxoindolin-6-yl)-3-isopropyl-3H-imidazo[4,5-c]pyridin-4-yl)amino)-N-(1-(difluoromethyl)cyclopropyl)-3,4-difluoro-2-methylbenzamide] it is 10.15; for `CNC(=O)c1cc(Nc2nc(-c3ccc4c(c3)N([C@H]3C[C@@H](N5CCCCC5)C3)C(=O)C43CCN(C(=O)C(C)(C)O)CC3)cc3ncn(C(C)C)c23)ccc1C` [Example 146, 5-((6-(1′-(2-hydroxy-2-methylpropanoyl)-2-oxo-1-((1s,3s)-3-(piperidin-1-yl)cyclobutyl)spiro[indoline-3,4′-piperidin]-6-yl)-3-isopropyl-3H-imidazo[4,5-c]pyridin-4-yl)amino)-N,2-dimethylbenzamide] it is 10.00. In the case of `CNC(=O)c1cc(Nc2nc(-c3ccc4c(c3)N([C@H]3C[C@@H](N5CCCCC5)C3)C(=O)C43CCN(C(=O)[C@@H](C)O)CC3)cc3ncn(C(C)C)c23)ccc1C` [Example 147] it was 9.70; in that of `CNC(=O)c1cc(Nc2nc(-c3ccc4c(c3)N([C@H]3C[C@@H](N5CCCCC5)C3)C(=O)C43CCN(C(=O)C45CC(O)(C4)C5)CC3)cc3ncn(C(C)C)c23)ccc1C` [Example 148], 9.70. In the case of `CNC(=O)c1cc(Nc2nc(-c3ccc4c(c3)N([C@H]3C[C@@H](N5CCCCC5)C3)C(=O)C43CCN(C(=O)C4(C)CCC4)CC3)cc3ncn(C4CC4)c23)ccc1C` [Example 149] it was 10.00. Regarding `CNC(=O)c1cc(Nc2nc(-c3ccc4c(c3)N([C@H]3C[C@@H](N5CCCCC5)C3)C(=O)C43CCN(C(=O)C4(C)CC4)CC3)cc3ncn(C4CC4)c23)ccc1C` [Example 150], the pIC50 is 10.00. The figure for `CNC(=O)c1cc(Nc2nc(-c3ccc4c(c3)N([C@H]3C[C@@H](N5CCCCC5)C3)C(=O)C43CCN(C(=O)[C@@H](C)O)CC3)cc3ncn(C4CC4)c23)ccc1C` [Example 151] is 10.30. The figure for `CNC(=O)c1cc(Nc2nc(-c3ccc4c(c3)N([C@H]3C[C@@H](N5CCCCC5)C3)C(=O)C43CCN(C(=O)C4(C)CC4)CC3)cc3ncn(C(C)C)c23)ccc1C` [Example 152, 5-((3-isopropyl-6-(1′-(1-methylcyclopropane-1-carbonyl)-2-oxo-1-((1s,3s)-3-(piperidin-1-yl)cyclobutyl)spiro[indoline-3,4′-piperidin]-6-yl)-3H-imidazo[4,5-c]pyridin-4-yl)amino)-N,2-dimethylbenzamide] is 9.70; for `CNC(=O)c1cc(Nc2nc(-c3ccc4c(c3)N([C@H]3C[C@@H](N5CCCCC5)C3)C(=O)C43CCN(C(=O)C4COC4)CC3)cc3ncn(C4CC4)c23)ccc1C` [Example 153] it is 10.00; for `CNC(=O)c1cc(Nc2nc(-c3ccc4c(c3)N([C@H]3C[C@@H](N5CCCCC5)C3)C(=O)C43CCN(C(=O)C45CC(F)(C4)C5)CC3)cc3ncn(C4CC4)c23)ccc1C` [Example 154] it is 10.22.

Take `CNC(=O)c1cc(Nc2nc(-c3ccc4c(c3)N([C@H]3C[C@@H](N5CCCCC5)C3)C(=O)C43CCN(C(=O)C4CCC4)CC3)cc3ncn(C4CC4)c23)ccc1C` [Example 155]: the pIC50 was 10.22.

As for `CNC(=O)c1cc(Nc2nc(-c3ccc4c(c3)N([C@H]3C[C@@H](N5CCCCC5)C3)C(=O)C43CCN(C(=O)C45CC(C4)C5)CC3)cc3ncn(C4CC4)c23)ccc1C` [Example 156], the pIC50 is 10.22.

For the compound `CC[C@H](C)n1cnc2cc(-c3ccc4c(c3)N([C@H]3C[C@@H](N5CCC[C@@H](F)C5)C3)C(=O)C43CCN(C(C)=O)CC3)nc(Nc3ccc(C)c(C(=O)NC)c3)c21` [Example 157, 5-((6-(1′-acetyl-1-((1S,3R)-3-((R)-3-fluoropiperidin-1-yl)cyclobutyl)-2-oxospiro[indoline-3,4′-piperidin]-6-yl)-3-((S)-sec-butyl)-3H-imidazo[4,5-c]pyridin-4-yl)amino)-N,2-dimethylbenzamide], the pIC50 was 9.70.

Regarding `CC[C@H](C)n1cnc2cc(-c3ccc4c(c3)N([C@H]3C[C@@H](N5CCC6(C5)CC6(F)F)C3)C(=O)C43CCN(C(C)=O)CC3)nc(Nc3ccc(C)c(C(=O)NC)c3)c21` (some centres unmarked) [Example 158], the pIC50 was 9.70. Turning to `CNC(=O)c1cc(Nc2nc(-c3ccc4c(c3)N([C@H]3C[C@@H](N5CCC(C)(C)C5)C3)C(=O)C43CCN(C(C)=O)CC3)cc3ncn(C4CC4)c23)ccc1C` [Example 159], the pIC50 was 10.00. The figure for `CNC(=O)c1cc(Nc2nc(-c3ccc4c(c3)N([C@H]3C[C@@H](N5CC(C)(C)CC(C)(C)C5)C3)C(=O)C43CCN(C(C)=O)CC3)cc3ncn(C4CC4)c23)ccc1C` [Example 160] is 10.10; for `CNC(=O)c1cc(Nc2nc(-c3ccc4c(c3)N([C@H]3C[C@@H](N5CCCC(C)(C)C5)C3)C(=O)C43CCN(C(C)=O)CC3)cc3ncn(C4CC4)c23)ccc1C` [Example 161] it is 10.22.
